# Patent publication US20260102383A1, “LPAR1 Inhibitors” (AbbVie Inc., priority 2024, published 2026)
# Biological target: T1, human LPAR1 (Homo sapiens, UniProt Q92633)
# T1 construct: host or cells: TangoEDG2-bla U2OS cells
# Test: Arrestin assay (Arrestin Reporter EDG2-bla U2OS), inhibition of LPA-stimulated signal
# Type: cell-based
# Settings: TangoEDG2-bla U2OS cells expressing human LPAR1; 0.25 μM LPA; read-out: Arrestin Reporter EDG2-bla U2OS Human Merged IC50
# Procedure, shortened: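 TangoEDG2-bla U2OS cells (1×10^4/well, plated 18-20 h) were preincubated 1 h at 37 °C with compound (12-point, 3-fold, 10 μM to 0.00006 μM), then stimulated 3 h with 0.25 μM LPA final. LiveBLAzer FRET B/G 460/530 nm emission ratio gave % inhibition; IC50 from 4-parameter variable-slope fit.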
# T1 sequence (Q92633 whole entry): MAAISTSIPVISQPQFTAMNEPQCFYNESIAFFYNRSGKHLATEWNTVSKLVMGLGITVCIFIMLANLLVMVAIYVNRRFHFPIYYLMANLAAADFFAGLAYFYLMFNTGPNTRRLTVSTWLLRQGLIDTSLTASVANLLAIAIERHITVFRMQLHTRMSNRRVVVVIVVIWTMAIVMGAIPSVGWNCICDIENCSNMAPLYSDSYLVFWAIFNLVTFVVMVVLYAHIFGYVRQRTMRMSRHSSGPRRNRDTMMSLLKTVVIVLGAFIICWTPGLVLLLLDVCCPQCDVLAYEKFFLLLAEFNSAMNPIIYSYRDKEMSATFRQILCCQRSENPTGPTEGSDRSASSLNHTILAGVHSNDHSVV
row,Structure (SMILES),IC50 [nM]
1,"CCOC(CN1CCC(C(=O)Nc2ccc(Cl)cc2OC(F)F)(n2nccc2C(C)C)CC1)C(=O)O (stereo not shown) [Compound 134, 3-[4-[[4-chloro-2-(difluoromethoxy)phenyl]carbamoyl]-4-(5-isopropylpyrazol-1-yl)-1-piperidyl]-2-ethoxy-propanoic acid]",71.5
2,"COCC[C@H](CN1CCC(C(=O)Nc2ccc(Cl)cc2OC(F)F)(n2ncc3c2C(C)(C)OC3)CC1)C(=O)O [Compound 207, (2R)-2-[[4-[[4-chloro-2-(difluoromethoxy)phenyl]carbamoyl]-4-(6,6-dimethyl-4H-furo[3,4-c]pyrazol-1-yl)-1-piperidyl]methyl]-4-methoxy-butanoic acid]",93.7
3,"CC(C)c1ccnn1C1(C(=O)Nc2ccc(Cl)cc2OC(F)F)CCN(CC(C(=O)O)c2cnn(C)c2)CC1 (stereo not shown) [Compound 147, 3-[4-[[4-chloro-2-(difluoromethoxy)phenyl]carbamoyl]-4-(5-isopropylpyrazol-1-yl)-1-piperidyl]-2-(1-methylpyrazol-4-yl)propanoic acid]",167
4,"CC(C)c1ccnn1C1(C(=O)Nc2ccc(Cl)cc2OC(F)F)CCN(CC2(C(=O)O)[C@@H]3COC[C@@H]32)CC1 (stereo partly drawn) [Compound 177, (1S,5R)-6-[[4-[[4-chloro-2-(difluoromethoxy)phenyl]carbamoyl]-4-(5-isopropylpyrazol-1-yl)-1-piperidyl]methyl]-3-oxabicyclo[3.1.0]hexane-6-carboxylic acid]",92.5
5,"COC1CN([C@@H](CN2CCC(C(=O)Nc3ccc(Cl)cc3OC(F)F)(n3nccc3C(C)C)CC2)C(=O)O)C1 [Compound 178, (2S)-3-[4-[[4-chloro-2-(difluoromethoxy)phenyl]carbamoyl]-4-(5-isopropylpyrazol-1-yl)-1-piperidyl]-2-(3-methoxyazetidin-1-yl)propanoic acid]",123
6,CC(C)c1ccnn1C1(C(=O)Nc2ccc(Cl)cc2OC(F)F)CCN(CC2(C(=O)O)CCN(C(=O)O[C@H]3CCOC3)CC2)CC1 [Compound 109],94.9
7,"CC(C)c1ccnn1C1(C(=O)Nc2ccc(Cl)cc2OC(F)F)CCN([C@@H]2CO[C@@H](C(=O)O)C2)CC1 [Compound 138, (2R,4S)-4-[4-[[4-chloro-2-(difluoromethoxy)phenyl]carbamoyl]-4-(5-isopropylpyrazol-1-yl)-1-piperidyl]tetrahydrofuran-2-carboxylic acid]",72
8,"CC(C)c1ccnn1C1(C(=O)Nc2ccc(Cl)cc2OC(F)F)CCN(CC2(C(=O)O)CC2)CC1 [Compound 76, 1-[[4-[[4-chloro-2-(difluoromethoxy)phenyl]carbamoyl]-4-(5-isopropylpyrazol-1-yl)-1-piperidyl]methyl]cyclopropanecarboxylic acid]",65.5
9,"CC(C)c1ccnn1C1(C(=O)Nc2ccc(Cl)cc2OC(F)F)CCN([C@H]2C[C@@](C#N)(C(=O)O)C2)CC1 [Compound 112, (1s,3s)-3-[4-[[4-chloro-2-(difluoromethoxy)phenyl]carbamoyl]-4-(5-isopropylpyrazol-1-yl)-1-piperidyl]-1-cyano-cyclobutanecarboxylic acid]",309
10,"CC(C)COC(=O)N1CCC(CN2CCC(C(=O)Nc3ccc(Cl)cc3OC(F)F)(n3nccc3C(C)C)CC2)(C(=O)O)CC1 [Compound 89, 4-[[4-[[4-chloro-2-(difluoromethoxy)phenyl]carbamoyl]-4-(5-isopropylpyrazol-1-yl)-1-piperidyl]methyl]-1-isobutoxycarbonyl-piperidine-4-carboxylic acid]",5.93
11,"CC(C)c1ccnn1C1(C(=O)Nc2ccc(Cl)cc2OC(F)F)CCN(C[C@@H](C(=O)O)N2CCOCC2)CC1 (single isomer, unassigned) [Compound 150, (25)-3-[4-[[4-chloro-2-(difluoromethoxy)phenyl]carbamoyl]-4-(5-isopropylpyrazol-1-yl)-1-piperidyl]-2-morpholino-propanoic acid]",99.5
12,"CC(C)c1ccnn1C1(C(=O)Nc2ccc(Cl)cc2OC(F)F)CCN(C[C@@H](C(=O)O)[C@@H]2CCOC2)CC1 (single isomer, unassigned) [Compound 151]",75

# The next lines start with the values.
row,IC50 [nM],Structure (SMILES)
1,8.94,"CC(C)c1ccnn1C1(C(=O)Nc2ccc(Cl)cc2OC(F)F)CCN(C[C@@H](COCC(F)(F)F)C(=O)O)CC1 [Compound 233, (2S)-2-[[4-[[4-chloro-2-(difluoromethoxy)phenyl]carbamoyl]-4-(5-isopropylpyrazol-1-yl)-1-piperidyl]methyl]-3-(2,2,2-trifluoroethoxy)propanoic acid]"
2,14.8,"CC(C)c1ccnn1C1(C(=O)Nc2ccc(Cl)cc2OC(F)F)CCN(CC2(C(=O)O)CCN(C(=O)C34CC(C3)C4)CC2)CC1 [Compound 69, 1-(bicyclo[1.1.1]pentane-1-carbonyl)-4-[[4-[[4-chloro-2-(difluoromethoxy)phenyl]carbamoyl]-4-(5-isopropylpyrazol-1-yl)-1-piperidyl]methyl]piperidine-4-carboxylic acid]"
3,26.4,"COCC1(C(=O)N2CCC(CN3CCC(C(=O)Nc4ccc(Cl)cc4OC(F)F)(n4nccc4C(C)C)CC3)(C(=O)O)CC2)CCC1 [Compound 59, 4-[[4-[[4-chloro-2-(difluoromethoxy)phenyl]carbamoyl]-4-(5-isopropylpyrazol-1-yl)-1-piperidyl]methyl]-1-[1-(methoxymethyl)cyclobutanecarbonyl] piperidine-4-carboxylic acid]"
4,25.7,"CC(C)c1c(F)cnn1C1(C(=O)Nc2ccc(Cl)cc2OC(F)F)CCN(C[C@H](C(=O)O)C2CCOCC2)CC1 [Compound 141, (28)-3-[4-[[4-chloro-2-(difluoromethoxy)phenyl]carbamoyl]-4-(4-fluoro-5-isopropyl-pyrazol-1-yl)-1-piperidyl]-2-tetrahydropyran-4-yl-propanoic acid]"
5,50.3,"CC(C)c1ccnn1C1(C(=O)Nc2ccc(Cl)cc2OC(F)F)CCN(CCC(C)(C)C(=O)O)CC1 [Compound 2, 4-[4-[[4-chloro-2-(difluoromethoxy)phenyl]carbamoyl]-4-(5-isopropylpyrazol-1-yl)-1-piperidyl]-2,2-dimethyl-butanoic acid]"
6,53.7,"CC(C)c1ccnn1C1(C(=O)Nc2ccc(Cl)cc2OC(F)F)CCN([C@H]2CO[C@@H](C(=O)O)C2)CC1 [Compound 139, (2R,4R)-4-[4-[[4-chloro-2-(difluoromethoxy)phenyl]carbamoyl]-4-(5-isopropylpyrazol-1-yl)-1-piperidyl]tetrahydrofuran-2-carboxylic acid]"
7,23.9,"CC[C@H](CN1CCC(C(=O)Nc2ccc(Cl)cc2OC(F)F)(n2nccc2C(C)C)CC1)C(=O)O [Compound 122, (2R)-2-[[4-[[4-chloro-2-(difluoromethoxy)phenyl]carbamoyl]-4-(5-isopropylpyrazol-1-yl)-1-piperidyl]methyl]butanoic acid]"
8,24.5,"CC(C)c1ccnn1C1(C(=O)Nc2ccc(Cl)cc2OC(F)F)CCN(C[C@@H](C(=O)O)c2cccnc2)CC1 [Compound 26, (2S)-3-[4-[[4-chloro-2-(difluoromethoxy)phenyl]carbamoyl]-4-(5-isopropylpyrazol-1-yl)-1-piperidyl]-2-(3-pyridyl)propanoic acid]"
9,30.6,"COc1cnn(C[C@@H](CN2CCC(C(=O)Nc3ccc(Cl)cc3OC(F)F)(n3nccc3C(C)C)CC2)C(=O)O)c1 [Compound 201, (2R)-2-[[4-[[4-chloro-2-(difluoromethoxy)phenyl]carbamoyl]-4-(5-isopropylpyrazol-1-yl)-1-piperidyl]methyl]-3-(4-methoxypyrazol-1-yl)propanoic acid]"
10,16.9,"COC[C@@H](CN1CCC(C(=O)Nc2ccc(Cl)cc2OC(F)F)(n2ncc(Cl)c2C(C)C)CC1)C(=O)O [Compound 206, (2R)-2-[[4-[[4-chloro-2-(difluoromethoxy)phenyl]carbamoyl]-4-(4-chloro-5-isopropyl-pyrazol-1-yl)-1-piperidyl]methyl]-3-methoxy-propanoic acid]"
11,11.7,"CC(C)c1ccnn1C1(C(=O)Nc2ccc(Cl)cc2OC(F)F)CCN(C[C@]2(C(=O)O)CC[C@@H](O)CC2)CC1 (single isomer, unassigned) [Compound 95, (1s,4s)-1-[[4-[[4-chloro-2-(difluoromethoxy)phenyl]carbamoyl]-4-(5-isopropylpyrazol-1-yl)-1-piperidyl]methyl]-4-hydroxy-cyclohexanecarboxylic acid]"
12,43,"COc1cnn(C2(C(=O)Nc3ccc(Cl)cc3OC(F)F)CCN(CC3(C(=O)O)CCOCC3)CC2)c1C(C)C [Compound 81, 4-[[4-[[4-chloro-2-(difluoromethoxy)phenyl]carbamoyl]-4-(5-isopropyl-4-methoxy-pyrazol-1-yl)-1-piperidyl]methyl]tetrahydropyran-4-carboxylic acid]"
13,40.9,"COC1CCC(C(CN2CCC(C(=O)Nc3ccc(Cl)cc3OC(F)F)(n3nccc3C(C)C)CC2)C(=O)O)CC1 (stereo not shown) [Compound 145, 3-[4-[[4-chloro-2-(difluoromethoxy)phenyl]carbamoyl]-4-(5-isopropylpyrazol-1-yl)-1-piperidyl]-2-(4-methoxycyclohexyl) propanoic acid]"
14,57.4,"CO[C@H]1CC[C@H]([C@H](CN2CCC(C(=O)Nc3ccc(Cl)cc3OC(F)F)(n3nccc3C(C)C)CC2)C(=O)O)CC1 (single isomer, unassigned) [Compound 185]"
15,50.8,"C=CC(=O)N1CCC(CN2CCC(C(=O)Nc3ccc(Cl)cc3OC(F)F)(n3nccc3C(C)C)CC2)(C(=O)O)CC1 [Compound 7, 4-[[4-[[4-chloro-2-(difluoromethoxy)phenyl]carbamoyl]-4-(5-isopropylpyrazol-1-yl)-1-piperidyl]methyl]-1-prop-2-enoyl-piperidine-4-carboxylic acid]"
16,40.4,"COC1(C(=O)O)CC(N2CCC(C(=O)Nc3ccc(Cl)cc3OC(F)F)(n3ncc(F)c3C(C)C)CC2)C1 (stereo not shown) [Compound 199, 3-[4-[[4-chloro-2-(difluoromethoxy)phenyl]carbamoyl]-4-(4-fluoro-5-isopropyl-pyrazol-1-yl)-1-piperidyl]-1-methoxy-cyclobutanecarboxylic acid]"
